Columns and labels:
[1] = Metabolic stability in human liver microsome assessed half life at 0.5 uM by LC-MS/MS analysis; type: ADME; conditions: liver microsomes
[2] = Displacement of [3H](S)-2-(tert-butoxy)-2-(2-methyl-4-(p-tolyl)quinolin-3-yl)acetic acid from LEDGF-binding site of recombinant T124/T125 polymorphic HIV1 integrase by LIDIA assay; parameters: species or system Human immunodeficiency virus 1
[3] = Stability in pH 7.4 for 2 weeks at 50 degC; type: physicochemical; conditions: buffer, pH 7.4, 336 h
[4] = test system: Human immunodeficiency virus 1; assay: Antiviral activity against recombinant HIV1 NLRep-Rluc harbouring polymorphic NT infected in human MT-2 cells assessed as inhibition of virus growth in presence of fetal bovine serum by measuring luciferase activity after 5 days; type: functional, organism-based; conditions: Human immunodeficiency virus 1, NLRep, MT2, 120 h
[5] = AUC in cynomolgus monkey at 2 mg/kg, po by LC-MS/MS analysis; type: ADME, organism-based, Macaca fascicularis; parameters: dose 2 mg/kg; conditions: in vivo
[6] = Oral bioavailability in CD-1 mouse at 5 mg/kg by LC-MS/MS analysis; type: ADME, organism-based; conditions: in vivo
[7] = Volume of distribution at steady state in Beagle dog at 1 mg/kg, iv by LC-MS/MS analysis; type: ADME, organism-based, Canis lupus familiaris; conditions: in vivo, read-out: Vdss
[8] = Toxicity in rat assessed as lipidosis at 500 mg/kg/day; type: organism-based; conditions: in vivo
[9] = Oral bioavailability in Sprague-Dawley rat at 5 mg/kg by LC-MS/MS analysis; type: ADME, organism-based; conditions: in vivo
[10] = Tmax in cynomolgus monkey at 2 mg/kg, po by LC-MS/MS analysis; type: ADME, organism-based, Macaca fascicularis; conditions: in vivo
[11] = Metabolic stability in rat liver microsome assessed half life at 0.5 uM by LC-MS/MS analysis; type: ADME; conditions: liver microsomes
L-type calcium channel = L-type calcium channel (Homo sapiens, UniProt O60840+Q01668+Q13698+Q13936); assay: Inhibition of calcium channel, Type L (unknown origin) at 10 uM; type: toxicity
[12] = Tmax in Beagle dog at 2 mg/kg, po by LC-MS/MS analysis; type: ADME, organism-based, Canis lupus familiaris; conditions: in vivo
[13] = Stability in pH 4 for 2 weeks at 50 degC; type: physicochemical; conditions: buffer, pH 4, 336 h
[14] = Elimination half life in Sprague-Dawley rat at 1 mg/kg, iv by LC-MS/MS analysis; type: ADME, organism-based; conditions: in vivo, read-out: beta t1/2 (converted)
[15] = test system: Human immunodeficiency virus 1; assay: Antiviral activity against recombinant HIV1 NLRep-Rluc harbouring polymorphic AT infected in human MT-2 cells assessed as inhibition of virus growth in presence of fetal bovine serum by measuring luciferase activity after 5 days; type: functional, organism-based; conditions: Human immunodeficiency virus 1, NLRep, MT2, 120 h
[16] = Cardiotoxicity in dog heart assessed as change in electrocardiographic parameter upto 128 uM of plasma concentration; type: toxicity, Canis lupus familiaris
[17] = Toxicity in rat at 50 to 500 mg/kg in cannulated jugular vein; type: organism-based; conditions: in vivo, iv, dose 50-500 mg/kg
[18] = test system: Human immunodeficiency virus 1; assay: Antiviral activity against recombinant HIV1 NLRep-Rluc harbouring polymorphic NA infected in human MT-2 cells assessed as inhibition of virus growth in presence of fetal bovine serum by measuring luciferase activity after 5 days; type: functional, organism-based; conditions: Human immunodeficiency virus 1, NLRep, MT2, 120 h
[19] = Plasma protein binding in monkey; type: ADME, cell-free, Macaca mulatta; conditions: rhesus monkey, read-out: PPB (converted)
[20] = Plasma protein binding in rat; type: ADME, cell-free; conditions: read-out: PPB (converted)
[21] = Plasma protein binding in human; type: ADME, cell-free; conditions: read-out: PPB (converted)
[22] = Elimination half life in CD-1 mouse at 1 mg/kg, iv by LC-MS/MS analysis; type: ADME, organism-based; conditions: in vivo, read-out: beta t1/2 (converted)
[23] = Plasma protein binding in dog; type: ADME, cell-free, Canis lupus familiaris; conditions: read-out: PPB (converted)
[24] = Clearance in Sprague-Dawley rat at 1 mg/kg, iv by LC-MS/MS analysis; type: ADME, organism-based; conditions: in vivo
[25] = Tmax in Sprague-Dawley rat at 5 mg/kg, po by LC-MS/MS analysis; type: ADME, organism-based; conditions: in vivo
Cytochrome P450 1A2 = target: T1, Cytochrome P450 1A2 (Homo sapiens, UniProt P05177); assay: Inhibition of human CYP1A2; type: ADME
T1 sequence (P05177 whole entry): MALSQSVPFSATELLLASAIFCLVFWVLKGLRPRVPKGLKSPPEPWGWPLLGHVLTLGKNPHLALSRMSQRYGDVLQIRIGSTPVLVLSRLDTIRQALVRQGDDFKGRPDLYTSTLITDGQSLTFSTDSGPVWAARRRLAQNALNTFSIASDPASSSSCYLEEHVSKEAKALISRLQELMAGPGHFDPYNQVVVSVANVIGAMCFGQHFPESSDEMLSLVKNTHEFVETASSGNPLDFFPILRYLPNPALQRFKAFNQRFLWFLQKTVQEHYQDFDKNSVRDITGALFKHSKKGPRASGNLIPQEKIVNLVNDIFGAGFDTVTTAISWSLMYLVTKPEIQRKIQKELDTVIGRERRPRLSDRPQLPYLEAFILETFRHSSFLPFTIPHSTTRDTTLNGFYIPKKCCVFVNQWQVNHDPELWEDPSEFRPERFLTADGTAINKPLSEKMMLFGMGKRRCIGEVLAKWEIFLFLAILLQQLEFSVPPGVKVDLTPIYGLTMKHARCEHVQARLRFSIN

sodium channel = assay: Inhibition of sodium channel (unknown origin) at 10 uM; type: toxicity; conditions: human
Cytochrome P450 2C19 = Cytochrome P450 2C19 (Homo sapiens, UniProt P33261); assay: Inhibition of human CYP2C19; type: ADME
CYP = CYP (Homo sapiens, UniProt P04798+P05177+P05181+P08684+P10632+P10635+P11509+P11712+P13584+P20813+P20815+P20853+P24462+P24903+P33260+P33261+P51589+P78329+P98187+Q02928+Q08477+Q16678+Q16696+Q5TCH4+Q6VVX0+Q7Z449+Q8TAV3+Q96SQ9+Q9HB55); assay: Half life in human assessed as CYP mediated metabolism in presence of […] by phase I metabolic oxidation assay; type: ADME, protein assay
[26] = Volume of distribution at steady state in CD-1 mouse at 1 mg/kg, iv by LC-MS/MS analysis; type: ADME, organism-based; conditions: in vivo, read-out: Vdss
[27] = Toxicity in rat assessed as histological changes in bone marrow at 500 mg/kg/day; type: organism-based; conditions: in vivo
[28] = Toxicity in rat assessed as histological changes in spleen at 500 mg/kg/day; type: organism-based; conditions: in vivo
[29] = Bioavailability in Beagle dog at 2 mg/kg, po by LC-MS/MS analysis; type: ADME, organism-based, Canis lupus familiaris; conditions: in vivo
[30] = Elimination half life in Cynomolgus monkey at 1 mg/kg, iv by LC-MS/MS analysis; type: ADME, organism-based, Macaca fascicularis; conditions: in vivo, read-out: beta t1/2 (converted)
[31] = Cmax in cynomolgus monkey at 2 mg/kg, po by LC-MS/MS analysis; type: ADME, organism-based, Macaca fascicularis; parameters: route oral, dose 2 mg/kg; conditions: in vivo
[32] = Cardiotoxicity in dog heart assessed as increase in heart rate at 300 mg/kg; type: toxicity, organism-based, Canis lupus familiaris; conditions: in vivo
[33] = Volume of distribution at steady state in Sprague-Dawley rat at 1 mg/kg, iv by LC-MS/MS analysis; type: ADME, organism-based; conditions: in vivo, read-out: Vdss
[34] = Elimination half life in Beagle dog at 1 mg/kg, iv by LC-MS/MS analysis; type: ADME, organism-based, Canis lupus familiaris; conditions: in vivo, read-out: beta t1/2 (converted)
[35] = test system: Human immunodeficiency virus 1; assay: Antiviral activity against recombinant HIV1 NLRep-Rluc harbouring polymorphic AA infected in human MT-2 cells assessed as inhibition of virus growth in presence of fetal bovine serum by measuring luciferase activity after 5 days; type: functional, organism-based; conditions: Human immunodeficiency virus 1, NLRep, MT2, 120 h

Sequence of Cytochrome P450 2C19 (P33261 whole entry): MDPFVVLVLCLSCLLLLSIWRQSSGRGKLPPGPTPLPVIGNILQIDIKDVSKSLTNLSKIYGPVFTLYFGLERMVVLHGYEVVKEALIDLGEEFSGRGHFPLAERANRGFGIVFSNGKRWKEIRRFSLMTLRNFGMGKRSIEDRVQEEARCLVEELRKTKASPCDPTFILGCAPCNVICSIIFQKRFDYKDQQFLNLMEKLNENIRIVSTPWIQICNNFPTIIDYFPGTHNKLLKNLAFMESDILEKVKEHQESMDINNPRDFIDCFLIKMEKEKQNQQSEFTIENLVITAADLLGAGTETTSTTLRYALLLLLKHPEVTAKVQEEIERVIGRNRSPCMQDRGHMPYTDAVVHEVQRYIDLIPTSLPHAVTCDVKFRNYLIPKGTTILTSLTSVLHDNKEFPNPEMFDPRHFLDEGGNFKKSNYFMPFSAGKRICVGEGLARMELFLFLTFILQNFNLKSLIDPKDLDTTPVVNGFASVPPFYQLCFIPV

Cc1nc(C)c([C@H](OC(C)(C)C)C(=O)O)c(N2CCC(C)(C)CC2)c1-c1ccc(OCCc2ccc(F)cc2)cc1
half-life at 0.5 µM [1]: 1.42 h
IC50 [2]: 11.1 nM
Stability [3]: Stable
EC50 [4]: 3.5 nM
AUC [5]: 2.23 µM·h
bioavailability [6]: 89%
Vd [7]: 0.7 L/kg
Activity [8]: Toxic
bioavailability [9]: 52%
Tmax [10]: 2 h
half-life at 0.5 µM [11]: > 2 h
inhibition at 10 µM (L-type calcium channel): 96%
Tmax [12]: 2 h
Stability [13]: Stable
half-life [14]: 4.3 h
EC50 [15]: 5.1 nM
Activity [16]: Non-Toxic
Activity [17]: Non-Toxic
EC50 [18]: 3.8 nM
fraction unbound [19]: 0.21
fraction unbound [20]: 0.19
fraction unbound [21]: 0.2
half-life [22]: 6.3 h
fraction unbound [23]: 0.13
clearance [24]: 5.5 mL/min/kg
Tmax [25]: 2.7 h
IC50 (Cytochrome P450 1A2): ≥ 24300 nM
inhibition at 10 µM (sodium channel): 79%
IC50 (Cytochrome P450 2C19): ≥ 24300 nM
half-life (CYP): 1.42 h
Vd [26]: 2.4 L/kg
Activity [27]: Toxic
Activity [28]: Toxic
bioavailability [29]: 75%
half-life [30]: 2.4 h
Cmax [31]: 525 nM
Activity [32]: 15%
Vd [33]: 0.8 L/kg
half-life [34]: 5.1 h
EC50 [35]: 3.2 nM
